For data set [1], the target named is T1, terbium chelate-labeled menin / FITC-MBM1 peptide (Menin/MLL) (Homo sapiens, UniProt O00255, T541A).
T1 construct: Menin (a. a. l-610-6×his tag) was labeled with terbium cryptate as follows
T1 sequence (O00255 with tags, fused parts or gaps T541A): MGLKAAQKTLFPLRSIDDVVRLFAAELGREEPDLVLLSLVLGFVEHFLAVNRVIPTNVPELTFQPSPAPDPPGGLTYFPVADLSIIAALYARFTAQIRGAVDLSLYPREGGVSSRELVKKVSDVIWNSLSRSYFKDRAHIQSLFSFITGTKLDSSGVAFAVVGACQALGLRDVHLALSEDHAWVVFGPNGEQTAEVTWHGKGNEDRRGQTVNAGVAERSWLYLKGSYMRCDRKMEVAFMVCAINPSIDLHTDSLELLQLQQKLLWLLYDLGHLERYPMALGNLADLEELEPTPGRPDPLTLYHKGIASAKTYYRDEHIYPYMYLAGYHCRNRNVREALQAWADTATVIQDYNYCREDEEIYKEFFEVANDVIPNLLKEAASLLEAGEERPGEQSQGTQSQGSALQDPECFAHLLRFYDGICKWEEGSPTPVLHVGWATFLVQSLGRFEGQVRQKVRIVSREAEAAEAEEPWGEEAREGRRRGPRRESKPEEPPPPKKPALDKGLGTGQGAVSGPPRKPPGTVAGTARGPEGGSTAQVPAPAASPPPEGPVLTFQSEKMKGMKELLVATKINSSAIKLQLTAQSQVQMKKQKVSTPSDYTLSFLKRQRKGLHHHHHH
Briefly: Menin/MLL homogenous time-resolved fluorescence (HTRF) assay. The format is binding. To be noted: read-out: (2) Menin HTRF assay (IC50 (nM)). An outline of the steps: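 Terbium cryptate-labeled menin (aa 1-610, 6×His), 100 pM, preincubated 5 min with compound, then 75 nM FITC-MBM1 peptide added for 15 min at ambient temperature. Buffer: 40 mM Tris pH 7.5, 50 mM NaCl, 1 mM DTT, 0.05% Pluronic F-127, 0.5% DMSO. HTRF 520/490 ratio; 11-point threefold titration from 25 μM, IC50 from % inhibition curve.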
Background: In TR-FRET formats the signal depends on donor and acceptor labels being close together.

For data set [2], the target named is T2, menin / FITC-MBM1 peptide (Menin/MLL) (Homo sapiens, UniProt O00255).
T2 sequence (O00255 1-610): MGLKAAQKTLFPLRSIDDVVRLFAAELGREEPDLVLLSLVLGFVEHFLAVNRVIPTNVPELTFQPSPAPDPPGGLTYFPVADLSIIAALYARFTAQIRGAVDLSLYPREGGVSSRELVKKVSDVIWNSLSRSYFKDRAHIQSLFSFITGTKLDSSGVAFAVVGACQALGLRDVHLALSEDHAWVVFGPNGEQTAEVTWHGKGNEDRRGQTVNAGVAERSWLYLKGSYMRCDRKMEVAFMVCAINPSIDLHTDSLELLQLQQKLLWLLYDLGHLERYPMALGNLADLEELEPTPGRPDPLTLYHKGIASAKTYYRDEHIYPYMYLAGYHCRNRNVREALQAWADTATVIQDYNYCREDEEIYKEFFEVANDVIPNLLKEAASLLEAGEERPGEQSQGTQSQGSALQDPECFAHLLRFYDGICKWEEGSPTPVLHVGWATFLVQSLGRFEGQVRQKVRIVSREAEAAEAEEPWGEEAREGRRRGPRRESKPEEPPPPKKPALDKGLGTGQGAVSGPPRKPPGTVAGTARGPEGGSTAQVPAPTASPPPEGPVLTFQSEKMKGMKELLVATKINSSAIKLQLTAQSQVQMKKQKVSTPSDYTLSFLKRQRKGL
Kind of data set: Menin/MLL fluorescence polarization (FP) assay. It counts as binding. To be noted: read-out: (1) Menin FP assay (IC50 (μM)). As for the experimental part: Pharmacological Part 1) Menin/MLL Fluorescence Polarization Assay
To a non-surface binding, black 384-well microtiter plate was added 50 nL 160× test compound in DMSO and 4 μL 2× menin in assay buffer (40 mM TrisHCl, pH 7.5, 50 mM NaCl, 1 mM DTT and 0.001% Tween 20). After incubation of test compound and menin for 10 min at ambient temperature, 4 μL 2×FITC-MBM1 peptide (FITC-β-alanine-SARWRPPARPGT-NH2) in assay buffer was added, the microtiter plate centrifuged at 1000 rpm for 1 min and the assay mixtures incubated for 15 min at ambient temperature. The relative amount of menin -FITC-MBM1 complex present in an assay mixture is determined by measuring the fluorescence polarization (FP) of the FITC label with a BMG Pherastar plate reader (ex. 485 nm/em. 520 nm) at ambient temperature. The final concentrations of reagents in the binding assay are 100 nM menin, 5 nM FITC-MBM1 peptide and 0.625%>DMSO in assay buffer. Dose-response titrations of test compounds are conducted using an 11 point, three-fold serial dilution scheme, starting at 31 μM.
Compound potencies were determined by first calculating % inhibition at each compound concentration according to equation 1: % inhibition=((HC−LC)−(FPcompound−LC))/(HC−LC))*100 (Eqn 1)
Where LC and HC are the FP values of the assay in the presence or absence of a saturating concentration of a compound that competes with FITC-MBM1 for binding to menin, and FP^compound is the measured FP value in the presence of the test compound. HC and LC FP values represent an average of at least 16 replicates per plate.
Where Bottom and Top are the lower and upper asymptotes of the dose-response curve, respectively, IC50 is the concentration of compound that yields 50% inhibition of signal and h is the Hill coefficient.

Another data set relates to MV-4-1 1 cells (MLL-AF4). Kind of data set: Proliferation assay (spheroid-like growth, 8 d, live-cell imaging), MV-4-11. The format is cell-based, human. To be noted: MV-4-11 cells, absolute IC50 from AUC of confluence, read-out: (3) Spheroid assay MV-4-11 (IC50 (μM)). An outline of the steps: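 Cells seeded in ultra-low attachment wells (1,500 MV-4-11, 300 MOLM14, 750 K562) with compound, 0.3% DMSO, grown 8 d at 37° C. Confluence imaged every four hours; AUC of confluence versus time, relative to vehicle, fitted for absolute IC50.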

For the next data set, the system named is MOLM14 cells (MLL-AF9). Kind of data set: Proliferation assay (spheroid-like growth, 8 d, live-cell imaging), MOLM14. Particulars: Homo sapiens, MOLM-14, 192 h, absolute IC50 from AUC of confluence, read-out: (3) Spheroid assay MOLM14 (IC50 (μM)). The format is cell-based, human. The method, then:
The anti-proliferative effect of menin/MLL protein/protein interaction inhibitor test compounds was assessed in human leukemia cell lines. The cell lines MV-4-1 1 and MOLM14 harbor MEL translocations and express the MEL fusion proteins MLL-AF4 and MLL-AF9, respectively, as well as the wildtype protein from the second allele. […] K562 was used as a control cell line containing two MLL wildtype alleles in order to exclude compounds that display general cytotoxic effects.
MV-4-1 1 and MOLM14 were cultured in RPMI-1640 (Sigma Aldrich) supplemented with 10% fetal bovine serum (HyClone), 2 mM L-glutamine (Sigma Aldrich) and 50 μg/ml gentamycin (Gibco). K562 were propagated in RPMI-1640 (Sigma Aldrich) supplemented with 20% fetal bovine serum (HyClone), 2 mM L-glutamine (Sigma Aldrich) and 50 μg/ml gentamycin (Gibco).
In order to assess the anti-proliferative effects, 1,500 MV-4-1 1, 300 MOLM14 or 750 K562 cells were seeded in 200 μl media per well in 96-well round bottom, ultra-low attachment plates (Costar, catalogue number 7007). Cell seeding numbers were chosen based on growth curves to ensure linear growth throughout the experiment. Test compounds were added at different concentrations and the DMSO content was normalized to 0.3%>. Cells were incubated for 8d at 37° C. and 5% C02. Spheroid like growth was monitored in real-time by live-cell imaging (IncuCyteZOOM, Essenbio, 4× objective) acquiring one image every four hours for 8d. Confluence (%) as a measure of spheroid size was determined using an integrated analysis tool.
In order to determine the cumulative effect of the test compounds over time, the area under the curve (AUC) in a plot of confluence against time was calculated. Confluence at the beginning of the experiment (t=0) was used as baseline for the AUC calculation.
Absolute IC50 values were calculated according to the following procedure: % Control=(AUC sample/AUC control)*100 AUC control=mean AUC of control values(cells without compound/DMSO as vehicle control)
A non-linear curve fit was applied using the least squares (ordinary) fit method to the plot of % control versus compound concentration. Based on this, the absolute IC50 value (half maximal inhibitory concentration of the test compound causing an anti-proliferative effect of 50% relative to the vehicle control) was calculated.

Read-outs that look alike come from different tables or passages of the source.

By IC50 is commonly meant the point on the concentration scale where inhibition reaches its midpoint. A word on the melting point: it is the temperature, or range, at which the solid turns liquid.

As to `FC(F)CN[C@@H]1CCCN(c2ncnc3sc(CC(F)(F)F)cc23)CC1` [Compound 5], the IC50 is 9530 nM in data set [1] and 6.36 µM in data set [2].

Turning to `FC(F)CN[C@@H]1CCCN(c2ncnc3sc(CC(F)(F)F)cc23)CC1` [Compound 5a], the IC50 in data set [1] worked out at 8290 nM; in data set [2], 6.15 µM.

`O=C(NC1CCCN(c2ncnc3sc(CC(F)(F)F)cc23)CC1)C1CC2(CC2)CN1` (stereo not shown) [Compound 10B]: the IC50 came to 5 µM with MV-4-1 1 cells (MLL-AF4) (Homo sapiens, MV4-11, 192 h); 14.2 µM with MOLM14 cells (MLL-AF9); 1320 nM in data set [1].

Regarding `Cc1ccc(CNC2CCCN(c3ncnc4sc(CC(F)(F)F)cc34)CC2)cc1` (stereo not shown) [Compound 16], the IC50 is 0.8 µM in the data set with MV-4-1 1 cells (MLL-AF4) (Homo sapiens, MV4-11, 192 h); 4.9 µM in the data set with MOLM14 cells (MLL-AF9); 21 nM in data set [1].

Take `OCc1ccccc1CNC1CCCN(c2ncnc3sc(CC(F)(F)F)cc23)CC1` (stereo not shown) [Compound 21]: the 50% inhibitory concentration (IC50) came out at 1 µM with MV-4-1 1 cells (MLL-AF4) (Homo sapiens, MV4-11, 192 h); 6.1 µM in the data set with MOLM14 cells (MLL-AF9); 97 nM in data set [1].

As for `COc1ccccc1CNC1CCCN(c2ncnc3sc(CC(F)(F)F)cc23)CC1` (stereo not shown) [Compound 22], the IC50 with MV-4-1 1 cells (MLL-AF4) (Homo sapiens, MV4-11, 192 h) turned out to be 2.5 µM; in the data set on MOLM14 cells (MLL-AF9), 9.9 µM; in data set [1], 78 nM.

For `Cc1cccc(CNC2CCCN(c3ncnc4sc(CC(F)(F)F)cc34)CC2)c1` (stereo not shown) [Compound 23], the IC50 is 3.1 µM in the data set with MV-4-1 1 cells (MLL-AF4) (Homo sapiens, MV4-11, 192 h); 9.4 µM in the data set with MOLM14 cells (MLL-AF9); 150 nM in data set [1].

The compound `CC1CN(c2ncnc3sc(CC(F)(F)F)cc23)CCCC1NCc1ccccc1` (stereo not shown) [Compound 67A] showed a melting point of 164 °C. Also, the IC50 in the data set on MV-4-1 1 cells (MLL-AF4) (Homo sapiens, MV4-11, 192 h) turned out to be 3.6 µM. The IC50 in data set [1] is 396 nM.

In turn, `CC1CN(c2ncnc3sc(CC(F)(F)F)cc23)CCCC1NCc1ccccc1` (stereo not shown) [Compound 67B] gave a melting point of 180 °C. Further, the IC50 with MV-4-1 1 cells (MLL-AF4) stood at 3.7 µM. Moreover, the IC50 in data set [1] was 348 nM.

As to `CC1CCN(c2ncnc3sc(CC(F)(F)F)cc23)CCC1NCc1ccccc1` (stereo not shown) [Compound 68C], the half-maximal inhibitory concentration (IC50) with MV-4-1 1 cells (MLL-AF4) (Homo sapiens, MV4-11, 192 h) came out at 4.4 µM; in the data set on MOLM14 cells (MLL-AF9), 7.7 µM; in data set [1] it was 282 nM.

The values are drawn from US11530226B2, “Azepane inhibitors of menin-MLL interaction” (Janssen Pharmaceutica NV, priority 2016, dated 2022).
